# Laboratory results taken from US20020032183A1, “Use of (di-substituted-phenyl)-pyrimidinyl-imidazole derivatives as JNK-inhibitors” (priority 2000, published 2002).
# “And” between values parts separate entries of the source, which are not always exact repeats. Identical values can stand only once. Like-named read-outs stand apart in the source and are kept apart here. Marks after values point to notes of the source that are not given here.
# Experiments:
# [1] = test system: mesencephalic dopaminergic neurons; format: cell-based, rat; conditions: for TH-immunoreactive cell survival, Mean: 48 hours
# Text: Effects of Jnk Inhibition on Dopaminergic Neuronal Survival, In Vitro Following Treatment with the Neurotoxin MPP^+.
# This protocol produces a yield of dopaminergic neurons of around 0.5-1%; this is equivalent to roughly 1000-1500 dopaminergic cells in the well. 14 day gestation Sprague-Dawley rats were killed by stunning and exsanguination. Embryos were removed and decapitated, and the ventral mesencephalon dissected from the brain. The tissue was dissociated by trypsin (0.25% in Hank's BSS) digestion for 20 minutes. The trypsin was neutralized by addition of an excess of serum containing medium and the cells centrifuged at 1000 rpm for 10 minutes. The cell pellet was resuspended in DMEM/10% FCS, and a single cell suspension prepared by mechanical dissociation and passage through a 70 μm cell strainer. Trypan blue excluding cells were counted in a haemocytometer, and cells were plated into poly-D-lysine treated 8-well chamber slides at a density of 2×10^5 cells/well in Dulbecco's MEM supplemented with 10% FCS. Cultures were incubated for 24 hours at 37° C./5% CO2, then the medium was replaced with DMEM supplemented with SATO (final concentration; 4.3 mg/ml BSA, 0.77 μg/ml progesterone, 20 μg/ml putrescine, 0.49 μg/ml L-thyroxine, 0.048 μg/ml selenium and 0.42 μg/ml tri-iodo-thyronine).
# Cultures were incubated for 5 days, then removed from the incubator and treated with compounds. Jnk inhibitors were added at concentrations ranging from 1 nM to 1 μM to 4 independent wells per concentration. 15 minutes following addition of Jnk inhibitors, MPP^+ was added directly to the wells to give a final concentration in the well of 10 μM. 4 wells were treated with MPP^+ 10 μM alone, and 4 left as untreated controls. zVAD-fmk 300 μM and Example 2 500 nM were used as positive controls. Once compounds and MPP^+ had been added, cultures were returned to the incubator at 37° C./5% CO2 for a further 48 hours prior to fixation and immunostaining.
# To determine the numbers of surviving dopaminergic neurons, immunocytochemistry was carried out using a rabbit polyclonal antibody raised against TH. Non-specific binding sites were blocked using 10% normal goat serum in PBS, then primary antibody was added at 4° C. overnight. The next day, the cells were washed and treated with biotin conjugated goat anti-rabbit IgG for one hour, followed by peroxidase conjugated avidin biotin complex, both made up from the Vectastain® Elite ABC kit (Vector Laboratories, Burlingame, Calif.) according to the manufacturer's instructions. Staining was visualized using Vector™ SG (Vector Laboratories) insoluble peroxidase substrate according to the manufacturer's instructions. Following staining, the gaskets were removed from the chamber slides, and the slides mounted using aqueous mountant. Slides were blinded by another investigator before quantification of TH-immunoreactive cell survival. To determine TH-immunoreactive cell survival, cells were visualized using transmitted light on a Zeiss Axiovert inverted microscope using a 10X objective. Counts were made of all the TH-immunoreactive cells present in each well.
# Data analysis was performed using a one way analysis of variance, followed by Dunnett's t-test. In each case the data refer to one representative experiment, with four independent replicates for each data point. […] Data shown are normalized to percentage of control response; all statistical analyses, however, were carried out on the cell counts.
# [2] = biological target: T1, JNK3α1 (Homo sapiens, UniProt P53779); experiment: Biochemical determination of inhibition of JNK3α1; conditions: truncated JNK3α1, 1 μM ATP, 0.5 μM GST-ATF2, 30° C., 30 min
# T1 construct: Truncated JNK3α1 (amino acids 39-422) was expressed in E. coli; made in house; host or cells: E. coli
# Description: Activation reactions were incubated at 30° C. for 2 h.
# Enzyme inhibition studies were performed at 30° C. for 30 min with 0.5 μM GST-ATF2, 1 μM ATP, 1 nM activated JNK3α1 and compound ranging from 30 pM to 100 μM. Reactions were carried out in 100 μL volumes containing the final concentrations of the following: 25 mM HEPES (Sigma) pH 7.4; 10 mM MgCl2 (Sigma); 2 mM DTT (Sigma); 20 mM β-glycerophosphate (Sigma); 0.1 mM Na3VO4 (Sigma); 2 μCi [γ-^33P]ATP (2000 Ci/mmol; 1 Ci=37 GBq) (Amersham Pharmacia Biotech, Piscataway, N.J.). Reactions were stopped with 100 μL 100 mM EDTA/15 mM sodium pyrophosphate. Immobilon™-P 96-well plates (Millipore MAIPNOB™ 10, available from the Millipore Corp., Bedford, Mass.) were pretreated with 100 μL methanol, followed by 100 μL 15 mM sodium pyrophosphate. Fifty μL of the stopped reaction was spotted in triplicate on the Immobilon™-P 96-well plate. The samples were vacuum-filtered and washed three times each with 100 μL 75 mM H3PO4 to remove unincorporated [γ-^33P]ATP. After the third H3PO4 wash and a final filtration step to remove H3PO4, 50 μL of Microscint™-20 (Packard BioScience Ltd., Pangbourne, Berkshire, U.K.) was added to each well and samples were analyzed on a Packard Topcount™ liquid scintillation counter. IC50 values were determined by fitting the data to the equation for a four parameter logistic.
# T1 sequence (P53779 39-422 isoform P53779-2): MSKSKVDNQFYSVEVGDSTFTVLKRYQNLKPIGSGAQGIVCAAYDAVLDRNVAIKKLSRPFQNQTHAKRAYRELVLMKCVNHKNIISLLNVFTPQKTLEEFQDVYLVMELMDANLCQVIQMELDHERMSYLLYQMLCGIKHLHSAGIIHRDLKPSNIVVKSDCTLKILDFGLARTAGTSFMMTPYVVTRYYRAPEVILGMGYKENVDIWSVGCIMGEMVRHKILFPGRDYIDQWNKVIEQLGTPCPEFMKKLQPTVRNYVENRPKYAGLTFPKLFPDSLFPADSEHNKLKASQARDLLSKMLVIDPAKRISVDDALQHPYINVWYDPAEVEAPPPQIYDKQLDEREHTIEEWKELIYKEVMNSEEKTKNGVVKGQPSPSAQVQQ
structure (smiles),measurement,setting,value
"CCCn1c(C2CCN(C)CC2)nc(-c2ccc(Cl)c(Cl)c2)c1-c1ccnc(NC2CC2)n1 [Example 2, Cyclopropyl-{4-[5-(3,4-dichlorophenyl)-2-[(1-methyl)-piperidin]-4-yl-3-propyl-3H-imidazol-4-yl]-pyrimidin-2-yl}amine]","TH-immunoreactive cell survival, Mean",[1]; 1 nM + MPP+ 10 μM,54.72 % of untreated control
same,"TH-immunoreactive cell survival, Mean",[1]; 10 nM + MPP+ 10 μM,60.77* % of untreated control
same,"TH-immunoreactive cell survival, Mean",[1]; 100 nM + MPP+ 10 μM,59.95* % of untreated control
same,"TH-immunoreactive cell survival, Mean",[1]; 500 nM + MPP+ 10 μM,72 % of untreated control and 72.41** % of untreated control
same,"TH-immunoreactive cell survival, Mean",[1]; 1 μM + MPP+ 10 μM,71.14** % of untreated control
same,"TH-immunoreactive cell survival, Mean",[1]; 10 μM + MPP+ 10 μM,32.08 % of untreated control
same,Non-specific toxicity,[1]; 10 μM treatment,Non-specific toxicity is observed
same,Concentrations giving significant increases in survival,"[1]; MPP+ 10 μM, p<0.05",≥ 10 nM
same,IC50,[2],7 nM
